Some test systems named below: COLO 205 colon; HOP-92 NSCLC; KM12 colon; NCI-H226 lung; NCI-H23 lung; SK-MEL-28 melanoma; SNB-75 CNS; U251 CNS; UACC-257 melanoma; UO-31 renal.
Holding throughout (experiment): NCI anticancer screen, dose series, 48 h

Molecules are shown by their SMILES.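 Five concentrations, 48 hours, 96-well plates. GI50: concentration for 50% inhibition of growth. TGI: total growth inhibition.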

In the case of `Cc1ccc(S(=O)(=O)Nc2cccc3c(=O)[nH]cnc23)cc1`, the TGI with COLO 205 colon, in the assay with HOP-92 NSCLC, in the assay on KM12 colon, in the assay on NCI-H226 lung, in the assay with NCI-H23 lung and in the assay with SK-MEL-28 melanoma was over 100 µM each time. The TGI in the assay with SNB-75 CNS, with U251 CNS, in the assay on UACC-257 melanoma and in the assay on UO-31 renal was over 100 µM throughout.

Take `Cc1n(CC(C)C)c2c([n+]1C)C(=O)c1ccccc1C2=O`: the TGI with COLO 205 colon is 0.0575 µM; with HOP-92 NSCLC, 4.44 µM; in the assay on KM12 colon it was 1.6 µM; with NCI-H226 lung, 1.27 µM; in the assay on NCI-H23 lung, 0.107 µM; with SK-MEL-28 melanoma, 2.98 µM. The TGI was 1.55 µM with SNB-75 CNS, 0.499 µM with U251 CNS, 0.156 µM in the assay on UACC-257 melanoma and 3.55 µM with UO-31 renal.

As to `Cc1ccc2c(ccc(/C=C/c3ccc(O)c4ncccc34)[n+]2C)c1`, the TGI in the assay on COLO 205 colon worked out at 39.9 µM; in the assay with HOP-92 NSCLC, 31.1 µM; in the assay with KM12 colon it was 33.3 µM; in the assay with NCI-H226 lung it was 46.5 µM; in the assay with NCI-H23 lung it was 40.7 µM; in the assay on SK-MEL-28 melanoma it was 33.1 µM. Further, the TGI was 43.7 µM in the assay with SNB-75 CNS, 26.8 µM with U251 CNS, 24.2 µM with UACC-257 melanoma and over 49.3 µM with UO-31 renal.

Consider `COC1OC(CS(=O)(=O)O)C(O)C(O)C1O` (stereo unspecified), for which the TGI in the assay with COLO 205 colon, in the assay with HOP-92 NSCLC, in the assay on KM12 colon, in the assay with NCI-H226 lung, in the assay with NCI-H23 lung and with SK-MEL-28 melanoma was over 100 µM each time. In addition, the TGI in the assay with SNB-75 CNS, in the assay with U251 CNS, with UACC-257 melanoma and with UO-31 renal was over 100 µM throughout.

As to `CC1(C)[C@@H]2CC[C@]1(C)[C@H](OC(=O)CSC#N)C2`, the TGI in the assay on COLO 205 colon, in the assay with HOP-92 NSCLC, with KM12 colon, in the assay with NCI-H226 lung, in the assay with NCI-H23 lung and with SK-MEL-28 melanoma was over 100 µM in each case. Moreover, the TGI in the assay with SNB-75 CNS, with U251 CNS, in the assay on UACC-257 melanoma and with UO-31 renal was over 100 µM throughout.

As to `O=S(=O)(O)c1ccc(N=Nc2ccc3c(S(=O)(=O)O)cccc3c2O)c2ccccc12`, the TGI in the assay with COLO 205 colon, with HOP-92 NSCLC, with KM12 colon, in the assay on NCI-H226 lung, with NCI-H23 lung and with SK-MEL-28 melanoma was over 100 µM throughout. The TGI in the assay on SNB-75 CNS, in the assay on U251 CNS, in the assay on UACC-257 melanoma and with UO-31 renal was over 100 µM throughout.

For `N#C[S-].[La+3].c1cnc2c(c1)ccc1cccnc12.c1cnc2c(c1)ccc1cccnc12.c1cnc2c(c1)ccc1cccnc12`, the TGI turned out to be 16.1 µM in the assay on COLO 205 colon; 18 µM with HOP-92 NSCLC; 22.6 µM in the assay on KM12 colon; 4.63 µM in the assay on NCI-H226 lung; 22.2 µM with NCI-H23 lung; 33.9 µM with SK-MEL-28 melanoma. The TGI in the assay on SNB-75 CNS was 29 µM; in the assay on U251 CNS it was 11.9 µM; with UACC-257 melanoma it was 20.2 µM; in the assay with UO-31 renal, 10.5 µM.

With `O=C1C=C(C2OC(CO)C(O)C2O)C(=O)N1` (stereo unspecified), the TGI in the assay with COLO 205 colon, with HOP-92 NSCLC, in the assay with KM12 colon, in the assay on NCI-H226 lung, in the assay with NCI-H23 lung and in the assay with SK-MEL-28 melanoma was over 100 µM throughout. Further, the TGI with SNB-75 CNS, with U251 CNS, with UACC-257 melanoma and with UO-31 renal was over 100 µM throughout.

Consider `C=C1C(=O)OC2/C=C(\C(=O)O)CC/C=C(\C)CC(OC(=O)/C=C(\C)CC)C12` (stereo unspecified), for which the TGI with COLO 205 colon amounted to 31.3 µM; with HOP-92 NSCLC, 36.8 µM; in the assay on KM12 colon it was 27.9 µM; in the assay with NCI-H226 lung, 32.9 µM; in the assay on NCI-H23 lung, 33.2 µM; with SK-MEL-28 melanoma it was 34.2 µM. Also, the TGI in the assay on SNB-75 CNS came to 47.6 µM; in the assay on U251 CNS, 30.7 µM; in the assay on UACC-257 melanoma, 39.9 µM; in the assay with UO-31 renal it was 41.9 µM.

On to `O=C(c1ccccc1)c1ccc2n[se]nc2c1`, for which the TGI is 84.1 µM in the assay on COLO 205 colon; over 100 µM in the assay with KM12 colon; over 100 µM with NCI-H23 lung; over 100 µM in the assay with SK-MEL-28 melanoma; over 100 µM with SNB-75 CNS; over 100 µM in the assay with U251 CNS. Further, the TGI in the assay with UACC-257 melanoma and with UO-31 renal was over 100 µM throughout.

As for `CCCC(C)c1ccc(OCCCCCCN2CCNCC2)cc1` (stereo unspecified), the GI50 with COLO 205 colon is 1.65 µM; in the assay with HOP-92 NSCLC, 1.54 µM; in the assay on KM12 colon it was 1.87 µM; with NCI-H226 lung, 9.26 µM; with NCI-H23 lung it was 2.13 µM; in the assay with SK-MEL-28 melanoma, 1.84 µM. The GI50 is 1.41 µM with SNB-75 CNS, 1.57 µM in the assay with U251 CNS, 2.05 µM in the assay on UACC-257 melanoma and 4.32 µM with UO-31 renal. For the same compound, the TGI in the assay on COLO 205 colon came to 3.42 µM; in the assay with HOP-92 NSCLC, 6.7 µM; in the assay on KM12 colon, 3.85 µM; in the assay on NCI-H226 lung, 35.8 µM; with NCI-H23 lung, 5.62 µM; in the assay on SK-MEL-28 melanoma, 3.65 µM. Also, the TGI came out at 3.06 µM in the assay with SNB-75 CNS, 3.07 µM with U251 CNS, 4.72 µM in the assay with UACC-257 melanoma and 20.3 µM in the assay on UO-31 renal.

On to `OC(CC1CCCCN1)c1ccc2c(c1)oc1ccccc12` (stereo unspecified), for which the TGI was 45.2 µM in the assay on COLO 205 colon; over 100 µM with HOP-92 NSCLC; over 100 µM with KM12 colon; over 100 µM with NCI-H226 lung; over 100 µM with NCI-H23 lung; over 100 µM in the assay with SK-MEL-28 melanoma. For the same compound, the TGI with SNB-75 CNS, with U251 CNS, in the assay with UACC-257 melanoma and in the assay on UO-31 renal was over 100 µM throughout.

Turning to `CN(C)/C=C/C(=CC=[N+](C)C)/C=C/N(C)C`, the TGI with HOP-92 NSCLC, with KM12 colon, in the assay with NCI-H226 lung, in the assay with NCI-H23 lung, in the assay with SK-MEL-28 melanoma and in the assay with U251 CNS was over 100 µM in each case. The TGI in the assay with UACC-257 melanoma and with UO-31 renal was over 100 µM each time.

The values are drawn from PubChem BioAssay (NCI).
